Read-outs that look alike come from different tables or passages of the source.
Key:
[1] = background statement on sodium hydroxide solutions, cited from earlier work
human skin = settings: in vivo
[2] = Freezing point of caustic solutions; type: physicochemical

Compound | freeze point (begins to freeze / will freeze) [1] [Celsius] | effect on human skin (human skin) | freezing point [2] [°C] | freeze point (begins to freeze / will freeze) ([1]; listed as 25% solution) [Celsius]
[Na+].[OH-] [50% sodium hydroxide solution, sodium hydroxide] | 14 |  |  | 
[Na+].[OH-] [25 wt % NaOH, sodium hydroxide] |  | immediate burning of the skin, followed with scarring | −18 | −17

From US11407647B2, “Synthetic caustic composition” (FLUID ENERGY GROUP LTD., priority 2017, dated 2022)
